Values quoted from earlier work as cited in publication PMC3263412 (International Journal of Nanomedicine, 2012).

For CCCCCCCCCCCCCCCC[N+](C)(C)C [CTAB, Cetyltrimethyl ammonium bromide], the cytotoxicity is listed as “marked cytotoxicity”.
